EP0776155B1, “DELIVERY OF EXOGENOUS CHEMICAL SUBSTANCES TO PLANT TISSUES” (MONSANTO COMPANY, priority 1994, dated 1996)

Legend:
Format in all cases: in vivo
[1] = system: common lambsquarter (Chenopodium album, CHEAL); assay: Example 46: percent control, various propelled particulate abrasives, glyphosate spray; settings: glyphosate 0.11 kg a.e./ha, 200-mesh
Method: In this Example illustrative of the invention, common lambsquarter (Chenopodium album, CHEAL) seeds were planted in 4-inch (10.1-cm) square pots filled with a soil mix consisting of 50% Metromix 350 plus 50% silt loam to which 100 g/cu ft (3.57 kg/m^3) Osmocote fertilizer were added, and the seeds were covered with the same soil mix without added fertilizer. […] The same settings were maintained before and after treatment.
Physical injury in this Example was inflicted on the above-ground portions of the plants, approximately 2 weeks after planting, by various propelled particulate abrasives. This was applied using the same sandblaster as used in Example 47. For this Example, air pressure was maintained at 40 lb/sq inch (276 kiloPascals), the nozzle was set 16 inches (41 cm) above the plant canopy, track speed was under 1 mile/hour (1.6 km/hr) and one pass was made with the sandblaster. […] Some plants received no abrasion.
Materials used as abrasive agents in this study were: • garnet, 200-mesh as used in Example 47 • glass cullet, 1040 supplied by Universal • glass cullet, 1035 supplied by Universal • aluminum oxide type B, 120-mesh • white silica sand, 1.0 profile size, supplied by Unimin • glass beads, 140-270 mesh • Scott's Lawn & Garden fertilizer granules ground to a fine powder using a Retsch 2M-1 mill
Plants were then assigned to different herbicide treatments in a factorial experimental design with 2 replications. All plants for each herbicide treatment were sprayed at the same time using a track sprayer calibrated to deliver 20 gallons/acre (187 liters/hectare) water with an 8002E nozzle having a 50-mesh screen, 16 inches (41 cm) above the plant canopy. In these Examples the herbicide used was glyphosate as its isopropylamine salt, in the form of the aqueous concentrate formulation MON 2139 of Monsanto Company. Spray solutions were made from stock solutions prepared by dilution of MON 2139 in water.
After an interval of 12 days, a visual evaluation was performed to estimate herbicidal efficacy as percent control of treated plants compared to untreated check plants.

[2] = system: silvergrass (Vulpia sp., VLPSS); assay: Example 51: field experiment, percent control, bruising or blasting then glyphosate spray; settings: 14 days after glyphosate application
Method: (§1) In this Example illustrative of the invention, a field experiment was conducted in the Australian Capital Territory on 5-10 cm high vegetation consisting primarily of white flatweed (Hypochoeris microcephala, HRYMI) at the rosette stage of growth and silvergrass (Vulpia sp., VLPSS) at the 1-3 tiller stage. Plots were established, 2 m wide and 10 m long, with 3 replications of each treatment.
(§2) Plots received either no physical injury, or one of two injury treatments, a prior art method described herein as "bruising" and a method of the present invention described herein as "blasting". Bruising involved driving a 2 metric ton four-wheel drive vehicle fitted with rubber tires, twice over the plot in opposite directions. For blasting, a hand-held sandblaster was used having a container of capacity 1000 cm^3 slung under the gun body. The sandblaster was made of die-cast aluminum alloy and equipped with a 6 mm nozzle. The operating pressure was 95 lb/sq inch (655 kPa). The abrasive used was a commercial product consisting of fine glass particles.
(§3) Within an hour after bruising or blasting, plots received an application of glyphosate as its isopropylamine salt in the form of the aqueous concentrate formulation sold in Australia as Roundup® herbicide, diluted appropriately in water. Application was made using a hand-held boom sprayer fitted with 11001 nozzles, operating at 250 kPa pressure and delivering 90 liters/ha spray volume.
(§4) After an interval of 14 days, a visual evaluation was performed to estimate herbicidal efficacy as percent control of plants in treated plots compared to untreated check plots.

[3] = system: white flatweed (Hypochoeris microcephala, HRYMI); assay: as above; settings: 14 days after glyphosate application
Method: as §1, §2, §3, §4

[4] = glyphosate rate 0.18 kg a.e./ha, injury treatment blasting
[5] = glyphosate rate 0.18 kg a.e./ha, injury treatment bruising
[6] = glyphosate rate 0.18 kg a.e./ha, injury treatment none
[7] = glyphosate rate 0.25 kg a.e./ha, injury treatment blasting
[8] = glyphosate rate 0.25 kg a.e./ha, injury treatment bruising
[9] = glyphosate rate 0.25 kg a.e./ha, injury treatment none
[10] = glyphosate rate 0.36 kg a.e./ha, injury treatment blasting
[11] = glyphosate rate 0.36 kg a.e./ha, injury treatment bruising
[12] = glyphosate rate 0.36 kg a.e./ha, injury treatment none

Structure (SMILES): O=C(O)CNCP(=O)(O)O [glyphosate, N-phosphonomethylglycine]
- percent control of CHEAL 12 days after glyphosate application ([1]; aluminum oxide, abrasive rate* (kg/ha) 143, calculated based on garnet): 46%
- percent control of CHEAL 12 days after glyphosate application ([1]; aluminum oxide, abrasive rate* (kg/ha) 256, calculated based on garnet): 50%
- percent control of CHEAL 12 days after glyphosate application ([1]; fertilizer, abrasive rate* (kg/ha) 143, calculated based on garnet): 25%
- percent control of CHEAL 12 days after glyphosate application ([1]; fertilizer, abrasive rate* (kg/ha) 256, calculated based on garnet): 34%
- percent control of CHEAL 12 days after glyphosate application ([1]; garnet, abrasive rate* (kg/ha) 143): 52%
- percent control of CHEAL 12 days after glyphosate application ([1]; garnet, abrasive rate* (kg/ha) 256): 37%
- percent control of CHEAL 12 days after glyphosate application ([1]; glass beads, abrasive rate* (kg/ha) 143, calculated based on garnet): 62%
- percent control of CHEAL 12 days after glyphosate application ([1]; glass beads, abrasive rate* (kg/ha) 256, calculated based on garnet): 43%
- percent control of CHEAL 12 days after glyphosate application ([1]; glass cullet, 1035, abrasive rate* (kg/ha) 143, calculated based on garnet): 28%
- percent control of CHEAL 12 days after glyphosate application ([1]; glass cullet, 1035, abrasive rate* (kg/ha) 256, calculated based on garnet): 48%
- percent control of CHEAL 12 days after glyphosate application ([1]; glass cullet, 1040, abrasive rate* (kg/ha) 143, calculated based on garnet): 38%
- percent control of CHEAL 12 days after glyphosate application ([1]; glass cullet, 1040, abrasive rate* (kg/ha) 256, calculated based on garnet): 20%
- percent control of CHEAL 12 days after glyphosate application ([1]; white silica sand, abrasive rate* (kg/ha) 143, calculated based on garnet): 38%
- percent control of CHEAL 12 days after glyphosate application ([1]; white silica sand, abrasive rate* (kg/ha) 256, calculated based on garnet): 50%
- percent control VLPSS [2, 4]: 77%
- percent control VLPSS [2, 5]: 78%
- percent control VLPSS [2, 6]: 65%
- percent control VLPSS [2, 7]: 82%
- percent control VLPSS [2, 8]: 83%
- percent control VLPSS [2, 9]: 85%
- percent control VLPSS [2, 10]: 98%
- percent control VLPSS [2, 11]: 83%
- percent control VLPSS [2, 12]: 95%
- percent control HRYMI [3, 4]: 77%
- percent control HRYMI [3, 5]: 77%
- percent control HRYMI [3, 6]: 62%
- percent control HRYMI [3, 7]: 100%
- percent control HRYMI [3, 8]: 80%
- percent control HRYMI [3, 9]: 78%
- percent control HRYMI [3, 10]: 100%
- percent control HRYMI [3, 11]: 93%
- percent control HRYMI [3, 12]: 92%
